This assay deals with P. falciparum 3D7 growth, pLDH absorbance. Nature of the assay: P. falciparum 3D7 growth inhibition, dose response, strain 3D7 (AID 2305).

`NC(=O)c1ccsc1NC(=O)CNC(c1ccccc1)c1ccc(Cl)cc1` (stereo not given) came in with an IC50 of 260 nM. `COc1cc2nc(SCCCC#N)n(C3CCCCCC3)c(=N)c2cc1OC` had an IC50 of 1140 nM. `Fc1ccc2[nH]c(-c3ccccc3)nc2c1CN1CCC(N2CCCC2)CC1` returned an IC50 of 720 nM.

Consider `Cc1ccc(C2CCN(CCCCNC(=O)c3ccc(NC(=O)c4ccc(Cl)cc4)cc3)CC2)c(C)c1`, for which the IC50 stood at 840 nM.

Turning to `CC(=O)Nc1ccc2[nH]cc(C3CCN(CC4CCC(NC(=O)/C=C/c5ccccc5Cl)CC4)CC3)c2n1` (stereo not given), the half-maximal inhibitory concentration (IC50) turned out to be 360 nM. The molecule `Cc1cc(NN=Cc2ccccc2Cl)c2cc(F)ccc2n1` came in with an IC50 of 750 nM.

`O=C(CN1CCN(S(=O)(=O)C=Cc2ccccc2)CC1)Nc1cc(C(F)(F)F)ccc1Cl`: the IC50 worked out at 780 nM. Next, `CCc1c(C)nc2nc(Cc3cccc(F)c3)nn2c1N1CCN(c2ccccn2)CC1`: 750 nM. Regarding `COc1cc(Cc2cnc(N)nc2N)cc(OCCCN2C(=O)c3ccccc3C2=O)c1OC`, the IC50 is 990 nM. `Cn1nc(C(F)(F)F)c(-c2ccc(F)cc2)c1NC(=O)Nc1ccccc1`: the IC50 stood at 800 nM. In turn, `O=C(NCCN1CCOCC1)c1ccc(-c2ccc(CNCCCc3ccccc3)cc2)nc1` registered an IC50 of 780 nM. As for `Cn1nccc1C(=O)NCCNCc1cccc(-c2ccc(-c3nc4ccccc4[nH]3)cc2)c1`, the IC50 was found to be 470 nM.

As to `N#Cc1ccc2c(c1)CCN(CCC1CCC(NC(=O)c3cc4cccc([N+](=O)[O-])c4[nH]3)CC1)C2` (stereo not given), the IC50 was found to be 680 nM. `COc1ccc(-c2ccc(NC(=O)c3ccc(C#N)cc3)cc2)cc1CN1CCCC1` displayed an IC50 of 870 nM. In turn, `CN1CCN(CC(=O)Nc2cccc(-c3ccc(-c4nc5ccc(C(F)(F)F)cc5[nH]4)cc3)c2)CC1` displayed an IC50 of 520 nM.

As to `Cc1cc(NN=Cc2ccccc2F)c2cc(F)ccc2n1`, the IC50 stood at 300 nM.

As to `COc1ccc(-c2ccc(S(=O)(=O)Nc3cc4c(cc3OC(C)C)CCN(C)CC4)cc2)cc1`, the IC50 worked out at 690 nM. `CNC(=O)NC1=NC(C)(C)N(OCc2ccc(Cl)c(Cl)c2)C(NC(=O)NC)=N1`: the IC50 turned out to be 600 nM.

In the case of `CCc1cn2c3c(cc(C(=O)N[C@@H](Cc4cccc(Cl)c4)[C@H](O)CNC4CCCCC4)cc13)N(C)S(=O)(=O)CC2`, the IC50 worked out at 60 nM. As to `CCOC(=O)C(NC(=O)Cc1ccccc1)C(C)C` (stereo not given), the IC50 was 290 nM.

With `N#Cc1ccc(-c2ccc(OCC(O)CN3CCCN(C(=O)C(c4ccc5c(c4)OCO5)N4CCN(C/C=C/c5ccccc5)CC4)CC3)cc2)cc1` (stereo not given), the IC50 was 650 nM. In turn, `O=C(/C=C/c1cccs1)NCC(NCCCNc1cc(=O)c2ccccc2[nH]1)c1cc(Br)cc(Br)c1` (stereo not given) came in with an IC50 of 890 nM. Take `COc1cc(CN2CCN(c3ccnc(N(C)C4CCN(C)CC4)n3)CC2)cc(Cl)c1O`: the IC50 was determined as 780 nM.

In the case of `Fc1ccc(CN2CCN(c3ncnc4cc(-c5ccccc5)sc34)CC2)cc1`, the IC50 came to 1020 nM. `CN1CCN(CCCN(Cc2cccc(-c3ccc(CNCCc4ccccc4)cc3)c2)C(=O)Nc2ccccc2)CC1` came in with an IC50 of 830 nM. In the case of `O=C(/C=C/c1ccc(Cl)c(Cl)c1)N1CC[C@H]2C[C@H](N3CCC(c4c[nH]c5ccccc45)CC3)CC[C@@H]2C1`, the IC50 is 170 nM. In turn, `Cc1[nH]c(C)c(-c2ccc(-c3cccc(Cl)c3)nc2)c(=O)c1Br` gave an IC50 of 320 nM. `Cc1ccc2[nH]c(-c3ccc(/C=C/C(=O)NC4CCN(Cc5ccccc5)CC4)cc3)nc2c1C`: the IC50 was 630 nM. `CC(C)c1ccc(-c2noc(SCC(=O)N(C)c3ccc(F)cc3)n2)cc1` yielded an IC50 of 1170 nM.

In turn, `COc1ccc(CCNc2nc(NCc3ccccc3)c3cc(OC)c(OC)cc3n2)cc1OC` returned an IC50 of 330 nM. `COc1cc(C=Cc2ccc3ccccc3n2)cc(Br)c1OCC(=O)N(C)C` came in with an IC50 of 1100 nM. Molecule `N#Cc1ccc(N2CCN(Cc3ccc(-c4ccc(-c5nc6ccc(C(F)(F)F)cc6[nH]5)cc4)cc3)CC2)nc1` registered an IC50 of 960 nM. Next, `Cc1cc(NN=Cc2cccc([N+](=O)[O-])c2)c2ccc(C(F)(F)F)cc2n1`: 880 nM; `Cc1c(CNCCCNc2nc3ccccc3[nH]2)sc(C(F)F)c1Br`: 290 nM; `CCOc1ccc(-c2nc3ccc(-c4nc5ccc(N6CCN(C)CC6)cc5[nH]4)cc3[nH]2)cc1`: 110 nM.

`CCN1CCN(CCCNc2c3ccccc3nc3ccccc23)CC1` returned an IC50 of 800 nM. In turn, `COc1ccccc1Cn1ccnc1SCC(=O)Nc1cc(C(F)(F)F)ccc1Cl` displayed an IC50 of 100 nM. Turning to `COc1ccc2nc(/N=C(/N)NC(=O)Nc3ccccc3)nc(C)c2c1`, the IC50 stood at 1280 nM. `CN1CCN(c2cc3c(cc2Br)CCN3C(=O)Nc2ccc(-c3cnc4ccccc4c3)cc2)CC1` gave an IC50 of 580 nM. Turning to `Nc1cccc(CNCc2cccc(-c3ccc(-c4nc5ccccc5[nH]4)cc3)c2)c1`, the IC50 was 420 nM. The molecule `CCn1c(SCc2ccc(F)cc2)nc2sc3c(c2c1=O)CCN(C)C3` came in with an IC50 of 250 nM. For the molecule `Cc1ccc(NC(=O)NC2CCN(c3ccnc4cc(Cl)ccc34)C2)cc1` (stereo not given), the IC50 is 150 nM. Molecule `CCn1c(-c2nonc2N)nc2c(-c3cccc(NC(=O)Nc4cccc(OC)c4)c3)ncc(OCCCN)c21` returned an IC50 of 770 nM. Consider `CCCCc1cc(NC2CCN(C)CC2)nc(Nc2ccccc2)n1`, for which the IC50 is 660 nM. Turning to `CCn1ncc(Cl)c1CN(C)S(=O)(=O)c1ccc2ccccc2c1`, the IC50 stood at 820 nM. Regarding `O=C(N[C@@H](CC1CCCCC1)C(=O)NCCN1CCCC1)c1ccc(O)c(-c2cccc(C(F)(F)F)c2)c1`, the IC50 was 760 nM. In turn, `CNC(=O)c1cnc(Nc2ccc(OCC(O)CN(C)C)cc2)nc1Nc1cccc(OC)c1` (stereo not given) had an IC50 of 320 nM.

`COCCNCc1cccc(-c2ccccc2CN(C(=O)Nc2ccccc2)C2CCN(Cc3ccccc3)CC2)c1` showed an IC50 of 910 nM. The molecule `COc1cc2nc(N3CCC(CNC(=O)c4ccc(-c5cccc(C#N)c5)cc4)CC3)nc(N)c2cc1OC` gave an IC50 of 140 nM.

Consider `CN1CCC[C@H]1COc1ccc(CN2CC[C@H](NC(=O)c3ccc(Cl)c(Cl)c3)C2)cc1Br`, for which the IC50 was determined as 980 nM. `COc1ccc2nccc([C@@H](O)CN3CCC(NC(=O)C(=Cc4ccc(Cl)cc4Cl)c4ccc(-c5ccccc5)cc4)CC3)c2c1` returned an IC50 of 990 nM.

As for `CN(C)S(=O)(=O)c1ccc(N2C(=O)[C@@H]3[C@H](C2=O)[C@@]2(c4ccccc4)C(=O)[C@]3(c3ccccc3)C(c3ccccc3)=C2c2ccccc2)cc1`, the IC50 amounted to 950 nM.

Regarding `CCS(=O)(=O)Nc1ccc2[nH]cc(C3CCN(CCC4CCN(C(=O)/C=C/c5ccc(Cl)c(Cl)c5)CC4)CC3)c2c1`, the IC50 was found to be 530 nM.

Molecule `Cc1cc(CNCC(CCNc2cc(=O)c3ccccc3[nH]2)NCc2cc(Br)cc(Br)c2)oc1C` (stereo not given) gave a concentration for half-maximal inhibition (IC50) of 890 nM. With `COc1cc(NC2CCCC(NCc3cn(S(=O)(=O)c4ccccc4)c4ccccc34)C2)nc2ccccc12` (stereo not given), the IC50 amounted to 250 nM.

With `COc1cc(F)c2ncc(Cl)c(C(O)CN3CCC(NC(=O)c4ccc5c(c4)NC(=O)CS5)CC3)c2c1` (stereo not given), the IC50 is 680 nM.

`c1cc(CN2CCCCC2)cc(-c2csc(-c3nc4ccccc4[nH]3)c2)c1` had an IC50 of 850 nM. Take `Cc1cc(NC(=O)[C@@H](Nc2ccc(C#N)c3ccccc23)C2CCCCC2)ccc1F`: the IC50 worked out at 890 nM.

In the case of `CC(C)(C)c1ccc(CNC(=O)c2cc(CNC3CCC(N)CC3)ccc2O)cc1` (stereo not given), the IC50 came to 1030 nM. Next, `Cc1ccccc1C1CCN(C2CCC(NC(=O)/C=C/c3cccc(F)c3)CC2)CC1` (stereo not given): 1190 nM; `CCC(C)NC(=O)CN1CN(c2ccccc2)C2(CCN(C(=O)c3ccc4ccccc4c3)CC2)C1=O` (stereo not given): 630 nM. The molecule `Cc1noc(C)c1-c1ccc2c(Nc3ccccc3C(C)(C)C)c(C(=O)NC3CCCC3)cnc2c1` came in with an IC50 of 1040 nM. Consider `Cc1cccc(N2CCN(C3CCC(NC(=O)c4cc5ccccc5[nH]4)CC3)CC2)c1C` (stereo not given), for which the IC50 was 610 nM. Regarding `Cc1ccc(Nc2ccnc(Nc3ccc(F)c(Cl)c3)n2)cc1O`, the IC50 was determined as 730 nM. For `Cc1nn(-c2ccc(Cl)cc2)c2[nH]c(CN3CCN(c4cccc(Cl)c4)CC3)cc(=O)c12`, the IC50 came out at 240 nM. Next, `CN(C(=O)/C=C/c1cc(C(F)(F)F)ccc1F)C1CCN(CCCCCNC(=O)/C=C/c2ccc(Cl)c(Cl)c2)CC1`: 290 nM. With `CC(C)(C)c1nn(-c2ccc(Cl)cc2)c2[nH]c(=O)c(CNCc3ccc4c(c3)OCO4)cc12`, the IC50 amounted to 810 nM.

With `c1ccc(-c2cc(NCc3cccc4ccccc34)c3[nH]ncc3n2)cc1`, the IC50 stood at 520 nM. With `Cn1nccc1C(=O)NCCNCc1ccc(-c2cccc(-c3nc4ccccc4[nH]3)c2)cc1`, the IC50 was 140 nM. In the case of `CC(C)COc1ccc2ccccc2c1CNCCCCCCNCc1c(OCC(C)C)ccc2ccccc12`, the IC50 is 700 nM.

In turn, `Cc1cc(-c2cnc(N)c(-c3ccc(N4CCN(C)CC4)nc3)c2)cc(C)c1O` had an IC50 of 1400 nM.

`CC1CCN(Cc2c(O)ccc3c(CN4CCC(C)CC4)c(O)ccc23)CC1` gave an IC50 of 130 nM. Next, `CCC(C)NC(=O)CN1CN(c2ccccc2)C2(CCN(C(=O)c3ccc(C(C)(C)C)cc3)CC2)C1=O` (stereo not given): 130 nM; `CCOc1cc(C(C)C)ccc1C1CCN(CCCCNC(=O)c2ccc(NC(=O)c3ccc(Cl)cc3)cc2)CC1`: 810 nM; `CN1CCC(Oc2ccc(Nc3nccc(NCC(O)c4ccccc4)n3)cc2Cl)CC1` (stereo not given): 790 nM. Next, `COc1cc(-c2cc(-c3ccc(OCCN(C)C)cc3)[nH]c2-c2ccncc2)ccc1Cl`: 710 nM; `O=C(C1COc2ccccc2O1)N(CCCn1ccnc1)Cc1csc(-c2ccc(CNCc3ccccc3)cc2)n1` (stereo not given): 620 nM. For the molecule `CC(CN(C)C)C(=O)Nc1ccc(-c2ccc(-c3nc4ccc(F)cc4[nH]3)cc2)cc1` (stereo not given), the IC50 was determined as 770 nM. In turn, `O=C(Nc1ccc(OC2CCN(Cc3ccsc3)C2)c(Cl)c1)c1ccco1` (stereo not given) had an IC50 of 600 nM. In turn, `CN1CC(c2ccc(Cl)c(Cl)c2)OC1=N` (stereo not given) displayed an IC50 of 280 nM. In the case of `Cc1cc(-c2ccnc(Nc3cccc(C#N)c3)n2)cc(C)c1O`, the IC50 was found to be 920 nM. Molecule `COc1ccc(CNC2CCN(C)CC2)cc1-c1ccc(S(=O)(=O)NCc2ccccc2)cc1` had an IC50 of 600 nM. Next, `O=C(Nc1ccc(Cl)cc1)OCCn1nnnc1C(c1ccc(Cl)cc1)N1CCOCC1` (stereo not given): 1180 nM. In the case of `CC(C)(C)c1ccc(CN2CCC(NC(=O)c3ccc(-c4ccccc4Cl)s3)CC2)cc1`, the IC50 turned out to be 1350 nM. For the molecule `CCCC(C)NC(=O)/C=C/c1ccccc1-c1cccc(OC)c1` (stereo not given), the IC50 was 1250 nM.

Usually IC50 stands for the concentration at which inhibition is half-maximal. A lower IC50 goes with greater potency.

(Values after PubChem BioAssay AID2305 (GlaxoSmithKline (GSK), 2010).)
